Test results: patent publication US9896421B2, “Compound having skin-whitening, anti-oxidizing and PPAR activities and medical use thereof” (Pusan National University Industry-University Cooperation …, priority 2011, dated 2018)
“Also recorded” adds a separate entry of the source.

Columns and labels:
PPAR alpha-LBD = molecular target: T1, PPAR alpha-LBD (Homo sapiens, UniProt Q07869); format: binding; details: sample final concentration 100 M (so in the source); compared with fenofibrate (positive control); FIG. 7
T1 construct: 10 μl of 4×PPAR alpha-LBD/Tb-anti-GST antibody
T1 sequence (Q07869 239-466 limits assumed): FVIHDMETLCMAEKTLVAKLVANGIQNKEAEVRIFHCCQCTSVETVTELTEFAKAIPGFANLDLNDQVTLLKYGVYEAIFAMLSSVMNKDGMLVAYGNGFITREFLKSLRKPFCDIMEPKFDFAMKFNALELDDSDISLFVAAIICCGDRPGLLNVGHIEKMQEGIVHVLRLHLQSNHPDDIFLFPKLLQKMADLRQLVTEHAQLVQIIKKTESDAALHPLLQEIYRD

PPAR gamma-LBD = molecular target: T2, PPAR gamma-LBD (Homo sapiens, UniProt P37231); test: PPAR gamma assay (fluormone Pan-PPAR green competition, Tb-anti-GST antibody); format: binding; details: sample final concentration 100 M (so in the source); compared with rosiglitazone (positive control); FIG. 8
T2 construct: 10 μl of 4×PPAR gamma-LBD/Tb-anti-GST antibody
T2 sequence (P37231 238-503 limits assumed): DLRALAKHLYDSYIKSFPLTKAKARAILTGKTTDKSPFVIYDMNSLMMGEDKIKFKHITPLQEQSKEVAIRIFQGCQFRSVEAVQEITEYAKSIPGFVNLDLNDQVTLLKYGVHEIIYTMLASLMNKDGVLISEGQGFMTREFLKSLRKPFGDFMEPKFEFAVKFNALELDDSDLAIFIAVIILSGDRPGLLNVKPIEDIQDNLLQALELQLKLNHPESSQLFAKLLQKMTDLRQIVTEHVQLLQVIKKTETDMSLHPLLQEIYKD
Description: 20 μl of a sample and 10 μl of 4× fluormone Pan-PPAR green were spread onto 384 well plates, and 10 μl of 4×PPAR alpha-LBD/Tb-anti-GST antibody or 10 μl of 4×PPAR gamma-LBD/Tb-anti-GST antibody were respectively used in PPAR alpha assay and PPAR gamma assay. In this regard, a sample compound was dissolved in such an amount of DMSO that made a final concentration of the sample to be 100 µM, and the DMSO final concentration was maintained within 1%. The reaction mixture was left at room temperature for 2 to 6 hours, and then, the absorption thereof was measured by using a microplate reader (Hewlett Packard) at an excitation wavelength of 340 nm and at an emission wavelength of 485 nm, and at an exitation wavelength of 340 nm and an emission wavelength of 520 nm to calculate a value of 520 nm/485 nm. In this regard, if a negative control was assumed to have an absorption value of 100, a competitive activation rate was defined as follows: 100 minus an absorption value of each sample. That is, the competitive activation rate indicates a binding ratio of the respective samples with respect to the negative control. […]

[1] = test system: ROS generated by vascular endothelial cells (YPEN-1); test: In vitro ROS scavenging activity assay (DCFDA) in YPEN-1 vascular endothelial cells; format: cell-based, rat; details: YPEN-1 cells pre-treated with 50 μM SIN-1 for 1 hour; DCFDA fluorescence; compared with trolox (positive control); FIGS. 1 to 3
Description: YPEN-1 cells (rat prostatic endothelial cell line) was obtained from American type culture collection (ATCC, Manassas, Va., USA), and the cells were cultured by using a dulbecco's modified eagle medium (DMEM, Nissui, Tokyo, Japan) containing 2 mM L-glutamine, […], 2.5 mg/L amphotericin B, and 5% inactivated fetal bovine serum (FBS). Also, the cells were maintained at a temperature of 37° C. in a humid atmosphere-like condition containing 5% CO2 and 95% air. […] The cells were sub-cultured in 100 mm plastic flask (Corning Co., New York, USA) every two days to maintain the cell line.
Since the oil-soluble DCFDA was deacetylated into non-fluorescent DCFH due to esterase or oxidative hydrolysis and the DCFH was oxidized due to activity oxgyen to produce highly-fluorescent 2′,7′-dichlorofluorescein (DCF), the present measurement was performed at an excitation wavelength of 485 nm and an emission wavelength of 530 nm by using a fluorophotometer (GENios, TECAN). Vascular endothelial cells that were pre-treated with 50 μM 3-morpholinosydnonimine hydrochloride (SIN-1) for 1 hour were used as a reactive oxygen generation source.

male Balb/c mouse = test: Toxicity test, single oral administration; format: in vivo; details: single oral dose 0.5, 1 and 2 g/kg in 0.5% methylcellulose, observed 7 days
Description: A suspension of each of Compound 3, Compound 15, Compound 50, Compound 85, Compound 93, and Compound 115 in a 0.5% methylcellulose solution was orally administered once to a male Balb/c mouse in dosages of 0.5 g/kg, 1 g/kg, and 2 g/kg, and then the survival rate and body weight of the mouse was recorded for 7 days.
After the administration, whether the mouse died, clinical symptoms occurred, and body weight changed were identified and hematologic examination and blood biochemical examination were performed, and autopsy was performed to identify with naked eyes states of abdominal cavity organs and thoracic cavity organs.

[2] = test system: Mushroom-derived tyrosinase; test: Tyrosinase inhibitory effect; format: biochemical; details: 1 mM L-tyrosin, pH 6.5, 25° C., 30 minutes, OD492; compared with kojic acid (positive control); FIGS. 4 to 6
Description: Mushroom-derived tyrosinase was sued as an enzyme source in the present experiment. Tyrosinase activities were assayed according to a slightly-modified conventionally known method (Life Sci., 1999, 65, 241-246). In detail, 20 μl of a mushroom-derived tyrosinase (1000 units) aqueous solution was added to 96-well microplate (Nunc, Denmark) to prepare 200 μl of the total volume of assay mixture containing 1 mM L-tyrosin solution and 50 mM phosphate buffer solution (pH 6.5). The assay mixture was cultured at a temperature of 25° C. for 30 minutes. After the culturing, an amount of the produced DOPA chrome in the reaction mixture was measured by using a microplate reader (Hewlett Packard) at 492 nm (OD492).

For `CC1=N/C(=C\c2ccccc2O)C(=O)O1` [Compound 93, (Z)-4-(2-hydroxybenzylidene)-2-methyloxazol-5(4H)-one], which “PPARα activities (competitive activation rate)” value (PPAR alpha-LBD) is on record?
Its value is “very excellent PPARα activation agent compared to fenofibrate; also recorded: simultaneously activates PPARα and PPARγ”.

What about the “PPARγ activities (competitive activation rate)” value (PPAR gamma-LBD) of the same compound?
Its value is “simultaneously activates PPARα and PPARγ”.

Which results are given for `[H]/N=C1/NC(=O)C(=Cc2ccc(O)c(O)c2)N1C` [Compound 75, (Z)-5-(3,4-dihydroxybenzylidene)-2-imino-1-methylimidazolidin-4-one]?
scavenging effects on ROS generated by vascular endothelial cells [1]: as high scavenging effects on ROS generated by vascular endothelial cells as trolox; melting point: 293 to 295.3 °C

Which “scavenging effects on ROS generated by vascular endothelial cells” value (“scavenging effects on ROS generated” for short) [1] does the source give for `O=C1NC(=O)/C(=C/c2ccc(O)c(O)c2)S1` [Compound 2, (Z)-5-(3,4-dihydroxybenzylidene)thiazolidine-2,4-dione] here?
Its value is “as high scavenging effects on ROS generated by vascular endothelial cells as trolox”.

What about the melting point of the same compound?
The melting point was over 300 °C.

With `O=C1NC(=S)N/C1=C\c1cc(O)cc(O)c1` [Compound 106, (Z)-5-(3,5-dihydroxybenzylidene)-2-thioxoimidazolidin-4-one] as the compound, how does the “scavenging effects on ROS generated” value [1] read?
The value was “as high scavenging effects on ROS generated by vascular endothelial cells as trolox”.

And the melting point?
The melting point was over 300 °C.

For `O=C1NC(=O)/C(=C/c2ccc(O)cc2O)S1` [Compound 3, (Z)-5-(2,4-dihydroxybenzylidene)thiazolidine-2,4-dione], which “death and clinical symptoms” value (male Balb/c mouse) is on record?
Its value is “neither had distinctive clinical symptoms nor died”.

What about the “toxicity change (body weight change, hematologic examination, blood biochemical examination, autopsy)” value (male Balb/c mouse) of the same compound?
The value was “toxicity change was not identified”.

And the tyrosinase inhibitory activities [2]?
Its tyrosinase inhibitory activities is “better tyrosinase inhibitory activities than a kojic acid”.

Which “scavenging effects on ROS generated” value [1] does the source give for `COc1cc(/C=C2\NC(=S)NC2=O)cc(OC)c1O` [Compound 110, (Z)-5-(4-hydroxy-3,5-dimethoxybenzylidene)-2-thioxoimidazolidin-4-one] here?
The value was “as high scavenging effects on ROS generated by vascular endothelial cells as trolox”.

What about the melting point of the same compound?
The melting point was 240.1 to 242.6 °C.

Which results are given for `O=C1NC(=O)C(=Cc2ccc(O)c(O)c2)C(=O)N1` [Compound 15, 5-(3,4-dihydroxybenzylidene)pyrimidine-2,4,6(1H,3H,5H)-trione]?
scavenging effects on ROS generated by vascular endothelial cells [1]: as high scavenging effects on ROS generated by vascular endothelial cells as trolox; death and clinical symptoms (male Balb/c mouse): neither had distinctive clinical symptoms nor died; toxicity change (body weight change, hematologic examination, blood biochemical examination, autopsy) (male Balb/c mouse): toxicity change was not identified; tyrosinase inhibitory activities [2]: better tyrosinase inhibitory activities than a kojic acid

For `CC(=O)Oc1ccc(/C=C2\N=C(C)OC2=O)c(O)c1` [Compound 85, (Z)-3-hydroxy-4-((2-methyl-5-oxooxazol-4(5H)-ylidene)methyl)phenyl acetate], which “PPARα activities (competitive activation rate)” value (PPAR alpha-LBD) is on record?
Its value is “very excellent PPARα activation agent compared to fenofibrate; also recorded: simultaneously activates PPARα and PPARγ”.

And the “PPARγ activities (competitive activation rate)” value (PPAR gamma-LBD)?
Its value is “simultaneously activates PPARα and PPARγ”.

With `O=C1C/C(=C\c2ccc(O)c(O)c2)C(=O)N1` [Compound 37, (E)-3-(3,4-dihydroxybenzylidene)pyrrolidine-2,5-dione] as the compound, how does the “scavenging effects on ROS generated” value [1] read?
The value was “as high scavenging effects on ROS generated by vascular endothelial cells as trolox”.

And the melting point?
The melting point was 290.8 to 291.9 °C.

With `O=C1NC(=S)N/C1=C\c1ccc(O)cc1O` [Compound 100, (Z)-5-(2,4-dihydroxybenzylidene)-2-thioxoimidazolidin-4-one] as the compound, how does the “scavenging effects on ROS generated” value [1] read?
Its value is “as high scavenging effects on ROS generated by vascular endothelial cells as trolox”.

What about the melting point of the same compound?
The melting point was over 300 °C.

For `O=C1NC(=S)NC(=O)C1=Cc1ccc(O)c(O)c1` [Compound 50, 5-(3,4-dihydroxybenzylidene)-2-thioxodihydropyrimidine-4,6(1H,5H)-dione], which “scavenging effects on ROS generated” value [1] is on record?
The value was “as high scavenging effects on ROS generated by vascular endothelial cells as trolox”.

And the “death and clinical symptoms” value (male Balb/c mouse)?
Its value is “neither had distinctive clinical symptoms nor died”.

And the “toxicity change (body weight change, hematologic examination, blood biochemical examination, autopsy)” value (male Balb/c mouse)?
The value was “toxicity change was not identified”.

What about the tyrosinase inhibitory activities [2] of the same compound?
Its tyrosinase inhibitory activities is “better tyrosinase inhibitory activities than a kojic acid”.

Which “scavenging effects on ROS generated” value [1] does the source give for `O=C1NC(=O)/C(=C/c2ccc(O)c(O)c2)N1` [Compound 26, (Z)-5-(3,4-dihydroxybenzylidene)imidazolidine-2,4-dione] here?
The value was “as high scavenging effects on ROS generated by vascular endothelial cells as trolox”.

And the melting point?
The melting point was over 300 °C.

With `O=C1NC(=S)N/C1=C\c1ccc(O)c(O)c1` [Compound 99, (Z)-5-(3,4-dihydroxybenzylidene)-2-thioxoimidazolidin-4-one] as the compound, how does the “scavenging effects on ROS generated” value [1] read?
The value was “as high scavenging effects on ROS generated by vascular endothelial cells as trolox”.

And the melting point?
The melting point was over 300 °C.
